One data set concerns bone marrow stem cells. The data set can be described thus: bone marrow stem cell proliferation (XTT). In kind it is cell-based, C57/BL6 mice. A digest of the protocol: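 Marrow cells from 6-week-old male C57/BL6 mice (suspension 500000 cells/ml, DMEM + 20% FCS) were incubated 7 days at 37° C, 8% CO2, with serially diluted products in triplicate. XTT/PMS […] over 8 h was read at 492 nm (690 nm reference). EC50 is the concentration at 50% of maximum amplitude; Min is the lowest concentration exceeding blank ±3 SD.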

Data set [1] relates to Limulus Amoebocyte Lysate.
In data set [2] the test system is predendritic cells (DC-6). Kind of data set: dendritic cell differentiation test: FITC-Dextran take-up. In kind it is cell-based, human. As to conditions: 10 μg/ml.

Values after ≈ are worked out from the molar mass of the structure shown.

`CCCCCCCCCCCC(=O)O[C@H](CCCCCCCCCCC)CC(=O)N[C@H](CC(=O)O)C(=O)NCCC[C@H](COC(=O)CCCCCNC(=O)CCC(=O)OC[C@@H]1C=C[C@H](n2cc(C)c(=O)[nH]c2=O)O1)NC(=O)C[C@H](O)CCCCCCCCCCC` [OM-197-MC-AC-Succ-d4T] came in with a Max amplitude with bone marrow stem cells (7 days, XTT 492 nm) of 1.40 O.D. The Min amplitude with bone marrow stem cells (blank ± 3× standard deviation) is given as 0.80 O.D. The same molecule showed a Max concentration in the data set on bone marrow stem cells (concentration at maximum amplitude) of 50 µg/mL. In addition, the EC50 conc with bone marrow stem cells (concentration corresponding to 50% of maximum amplitude) was 25.4 µg/mL (≈ 19.7 µM). This molecule showed a Min concentration with bone marrow stem cells (lowest concentration inducing a significant proliferation) of 2.81 µg/mL. In data set [1] (1 EU = 0.08 ng E. coli 055:B5 LPS), the “LAL ng of LPS equivalent per mg of product” value is 0.08 ng of LPS equivalent per mg of product. Besides, in data set [1] (acyl-dipeptide-like compounds, diluted 0.1 mg/ml solution), the “LAL EU/mg of product” value is 1.05 EU/mg of product. In addition, in data set [2] (products redissolved in pyrogen-free water, % of dendritic cells), the “Dextran % CD” value amounted to 11.6%. Further, the “Dextran Fluorescence” value in data set [2] (mean fluorescence value) is 0.5.

The values above are taken from patent US8173133B2, “Acyl pseudodipeptides which carry a functionalized auxiliary arm” (OM Pharma, priority 1999, dated 2012).
